Literature values in US5993851A, “Method for preparing biphasic multilamellar lipid vesicles” (PharmaDerm Laboratories, Ltd., priority 1998, dated 1999).

Test system: genital warts

interferon alpha
Clinical outcome in words (in vivo): fairly successful
side effects (systemic application (i.m. injection), genital warts): fever, myalgias, headache, nausea, fatigue
